Literature values, collected in patent publication US20090215818A1, “THIOZOLIDINEDIONE DERIVATIVES AS PI3 KINASE INHIBITORS” (SmithKline Beecham Corporation, priority 2006, published 2009).
Like-named read-outs stand apart in the source and are kept apart here.

Assays:
Class I PI3-kinases = conditions: each of the Class I PI3-kinases
CK2 protein kinase = CK2 protein kinase (Homo sapiens, UniProt P68400)
CK2 protein kinase, sequence (P68400 whole entry): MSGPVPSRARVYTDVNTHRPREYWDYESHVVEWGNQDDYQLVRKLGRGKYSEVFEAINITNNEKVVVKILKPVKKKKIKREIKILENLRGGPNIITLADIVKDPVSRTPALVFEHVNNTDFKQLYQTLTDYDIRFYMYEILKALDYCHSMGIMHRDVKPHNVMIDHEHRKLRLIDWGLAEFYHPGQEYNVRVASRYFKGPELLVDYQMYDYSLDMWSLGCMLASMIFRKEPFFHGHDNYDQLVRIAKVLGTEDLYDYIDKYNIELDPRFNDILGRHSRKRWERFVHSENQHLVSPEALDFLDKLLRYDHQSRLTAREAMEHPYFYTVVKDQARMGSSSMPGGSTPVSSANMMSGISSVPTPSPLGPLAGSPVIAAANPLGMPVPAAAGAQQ

Molecule | IC50 (Class I PI3-kinases; Fruman et al. 1998, read-out: IC50 against each of these PI3-kinases) [µM] | IC50 (CK2 protein kinase) [µM] | IC50 (Class I PI3-kinases; read-out: IC50 against each of the various Class I PI3-kinases) [µM]
O=c1cc(N2CCOCC2)oc2c(-c3ccccc3)cccc12 [LY294002] | 15 to 20 | 5 to 10 | 
wortmannin |  |  | 0.001 to 0.01
